Data from PMC3069126 (Journal of natural products, 2011).

How the values were obtained:
[1] = molecular target: T1, quinone reductase 2 (QR2) (Homo sapiens, UniProt P16083); assay: QR2 assay
T1 sequence (P16083 1-231): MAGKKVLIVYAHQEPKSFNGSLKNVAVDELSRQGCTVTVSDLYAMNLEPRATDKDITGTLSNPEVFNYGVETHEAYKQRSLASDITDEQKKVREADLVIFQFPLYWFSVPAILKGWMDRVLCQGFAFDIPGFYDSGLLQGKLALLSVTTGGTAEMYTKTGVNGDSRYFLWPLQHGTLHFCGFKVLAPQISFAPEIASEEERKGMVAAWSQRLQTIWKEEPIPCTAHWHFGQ

[2] = tested on: ovine QR2; assay: Ultrafiltration LC-MS binding assay for QR2
[3] = tested on: MCF-7 cells; assay: Cytotoxicity assay; format: cell-based; conditions: Homo sapiens, MCF7, read-out: inhibition of MCF-7
[4] = tested on: Hepa1c1c7 cells; assay: Cytotoxicity assay; format: cell-based; conditions: Hepa-1c1c7, read-out: inhibition of Hepa1c1c7

For O=c1c(O[C@@H]2O[C@H](CO)[C@@H](O)[C@H](O)[C@H]2O)c(-c2ccc(O)c(O)c2)oc2cc(O)cc(O)c12 [Compound 15, quercetin-3-O-β-D-glucoside], the “ability to inhibit QR2 (in words)” value [1] was “able to inhibit QR2”.

COc1c(-c2ccc(O)cc2)oc2cc(O[C@@H]3O[C@H](CO[C@@H]4O[C@@H](CO)[C@H](O)[C@H]4O)[C@@H](O)[C@H](O)[C@H]3O)cc(O)c2c1=O [Compound 10, 4′, 5,7-trihydroxy-3-methoxyflavone-7-O-α-L-arabinofuranosyl (1→6)-β-D-glucopyranoside] was tested, and the “response in LC-MS ultrafiltration binding assay with QR2” value [2] was “positive response”.

CC(=O)O[C@H]1C(=O)[C@@]2(C)[C@H]([C@H](OC(=O)c3ccccc3)[C@]3(O)C[C@H](OC(=O)[C@H](O)[C@@H](NC(=O)c4ccccc4)c4ccccc4)C(C)=C1C3(C)C)[C@]1(OC(C)=O)CO[C@@H]1C[C@@H]2O [paclitaxel] gave an inhibition at 23.4 µM [3] of 64% and an inhibition at 23.4 µM [4] of 57%.

CC[C@]1(O)C[C@@H]2CN(CCc3c([nH]c4ccccc34)[C@@](C(=O)OC)(c3cc4c(cc3OC)N(C)[C@H]3[C@@](O)(C(=O)OC)[C@H](OC(C)=O)[C@]5(CC)C=CCN6CC[C@]43[C@@H]65)C2)C1 [vinblastine] showed an inhibition at 49.4 µM [3] of 74% and an inhibition at 49.4 µM [4] of 90%.

In the case of COc1c(-c2ccc(O)cc2)oc2cc(O[C@@H]3O[C@H](CO)[C@@H](O)[C@H](O)[C@H]3O)cc(O)c2c1=O [Compound 14, 4′, 5,7-trihydroxy-3-methoxyflavone-7-O-β-D-glucopyranoside], the “response in LC-MS ultrafiltration binding assay with QR2” value [2] is reported as “positive response”.
